Measured values from patent publication US11298367B2, “Prodrugs of substituted triazole derivatives and uses thereof” (Bayer Aktiengesellschaft, priority 2017, dated 2022).

Key:
human V2 receptor = biological target: T1, human V2 receptor (Homo sapiens, UniProt P30518); experiment: Cellular in vitro assay for vasopressin receptor activity (V2, CRE-luciferase); type: cell-based; conditions: CHO cell line with human V2 receptor, [Arg8]-vasopressin at EC50; values are for the prodrug as such; read-out: IC50 hV2
T1 construct: expressed in transfected cells; host or cells: CHO K1 cells expressing firefly luciferase under a CRE-responsive promoter
T1 sequence (P30518 whole entry): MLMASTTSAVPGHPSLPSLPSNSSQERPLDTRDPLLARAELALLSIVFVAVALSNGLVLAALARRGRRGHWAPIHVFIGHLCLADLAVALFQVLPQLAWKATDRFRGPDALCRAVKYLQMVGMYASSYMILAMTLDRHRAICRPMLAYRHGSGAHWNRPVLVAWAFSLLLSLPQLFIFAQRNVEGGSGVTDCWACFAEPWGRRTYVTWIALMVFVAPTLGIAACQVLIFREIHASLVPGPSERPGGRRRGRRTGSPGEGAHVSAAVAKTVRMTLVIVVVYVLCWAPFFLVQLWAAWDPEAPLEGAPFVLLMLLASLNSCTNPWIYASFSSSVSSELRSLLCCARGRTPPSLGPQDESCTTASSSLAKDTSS
Protocol: (§1) B-1. Cellular In Vitro Assay for Determining Vasopressin Receptor Activity
(§2) The identification of agonists and antagonists of the V1a and V2 vasopressin receptors from humans, rats and dogs as well as the quantification of the activity of the compounds of the invention is carried out using recombinant cell lines. These cell lines originally derive from a hamster's ovary epithelial cell (Chinese Hamster Ovary, CHO K1, ATCC: American Type Culture Collection, Manassas, Va. 20108, USA). The test cell lines constitutively express the human, rat or dog V1a or V2 receptors. In case of the Gaq-coupled V1a receptors, cells are also stably transfected with a modified form of the calcium-sensitive photoproteins aequorin (human and rat V1a) or obelin (dog V1a), which, after reconstitution with the cofactor coelenterazine, emit light when there are increases in free calcium concentrations [Rizzuto R, Simpson A W, Brini M, Pozzan T, Nature 358, 325-327 (1992); Illarionov B A, Bondar V S, Illarionova V A, Vysotski E S, Gene 153 (2), 273-274 (1995)]. The resulting vasopressin receptor cells react to stimulation of the recombinantly expressed Via receptors by intracellular release of calcium ions, which can be quantified by the resulting photoprotein luminescence. The Gs-coupled V2 receptors are stably transfected into cell lines expressing the gene for firefly luciferase under control of a CRE-responsible promoter. Activation of V2 receptors induces the activation of the CRE-responsive promoter via cAMP increase, thereby inducing the expression of firefly luciferase. The light emitted by photoproteins of V1a cell lines as well as the light emitted by firefly luciferase of V2 cell lines corresponds to the activation or inhibition of the respective vasopressin receptor. The bioluminescence of the cell lines is detected using a suitable luminometer [Milligan G, Marshall F, Rees S, Trends in Pharmacological Sciences 17, 235-237 (1996)].
Vasopressin V2 Receptor Cell Lines:
On the day before the assay, the cells are plated out in culture medium (DMEM/F12, 2% FCS, 2 mM glutamine, 10 mM HEPES) in 384-well microtiter plates and kept in a cell incubator (96% humidity, 5% v/v CO2, 37C). On the day of the assay, test compounds in various concentrations and the agonist [Arg^8]-vasopressin at EC50 concentration are added together to the wells, and plates are incubated for 3 hours in a cell incubator. Upon addition of the cell lysis reagent Triton™ and the substrate luciferin, luminescence of firefly luciferase is measured in a luminometer.
(§3) Table 1A below lists individual IC50 values for the compounds of the invention (including racemic mixtures as well as separated enantiomers) that were obtained from cell lines transfected with the human V1a or V2 receptor. This means these IC50 values are the values for the prodrug and not for the underlying respective drug as the prodrug is mainly stable under the assay conditions.

Solubility = type: physicochemical; conditions: 24 h room temperature, max. 500 μg/ml; for solubility at 24 h: thermodynamic from solid
Protocol: For each substance 0.5-0.6 mg are weighed exactly. In each case, sufficient medium is added to the sample in such a way that a concentration of c=500 μg/ml is obtained. This sample solution is shaken for 24 h at room temperature and 1400 rpm.
A further sample weight of 0.5-0.6 mg is required for the DMSO calibration solution. This sample is filled with DMSO to a concentration of c=600 μg/ml. Two calibration solutions are prepared from this stock solution. In a 2 ml HPLC vial, 1000 μl of DMSO are initially introduced and 34.4 μl of the stock solution are pipetted (c=20 µg/ml). […] of this solution (c=20 μg/ml) are placed in a further 2 ml HPLC vial containing 500 μl of DMSO (c=2.5 μg/ml).
After shaking the test solutions, 230 μl of the supernatant are transferred into a centrifuge tube and centrifuged at 42 000 rpm (223 000 g) for 30 min. 180 μl of the supernatant are then taken and each diluted with DMSO (1:5 sample 1; 1:100 sample 2), and transferred to HPLC vials. The two calibration solutions and the dilute sample solutions are analyzed by HPLC. Quantification is performed over the corresponding peak areas.
Distilled water; trifluoroacetic acid (Merck; 1.08262.0100); acetonitrile (HPLC grade); DMSO (Merck; 8.02912.2500).
Fluka buffer, Order No. 33643 (11.76 g citric acid, 2.57 g sodium chloride and 2.72 g sodium hydroxide).
Fluka buffer, Order No. 33646 (3.52 g potassium dihydrogenphosphate, 7.26 g sodium hydrogen phosphate).
Solution of 6.18 g sodium chloride and 3.96 g sodium dihydrogen phosphate in 1 L distilled water, adjust with 1M aqueous sodium hydroxide solution to pH 7.4.
0.6057 g TRIS was dissolved in 95 ml water, adjust to pH 8.5 with aqueous hydrochloric acid, fill with water until 100 ml volume is reached.

human V1a receptor = biological target: T2, human V1a receptor (Homo sapiens, UniProt P37288); experiment: Cellular in vitro assay for vasopressin receptor activity (V1a, aequorin luminescence); type: cell-based; conditions: for IC50: CHO cell line with human V1a receptor, [Arg8]-vasopressin at EC50, values are for the prodrug as such, read-out: IC50 hV1a; for ratio IC50 hV2/hV1a: selectivity ratio hV2/hV1a
T2 construct: expressed in transfected cells; host or cells: CHO K1 (Chinese hamster ovary), also stably transfected with a modified aequorin
T2 sequence (P37288 whole entry): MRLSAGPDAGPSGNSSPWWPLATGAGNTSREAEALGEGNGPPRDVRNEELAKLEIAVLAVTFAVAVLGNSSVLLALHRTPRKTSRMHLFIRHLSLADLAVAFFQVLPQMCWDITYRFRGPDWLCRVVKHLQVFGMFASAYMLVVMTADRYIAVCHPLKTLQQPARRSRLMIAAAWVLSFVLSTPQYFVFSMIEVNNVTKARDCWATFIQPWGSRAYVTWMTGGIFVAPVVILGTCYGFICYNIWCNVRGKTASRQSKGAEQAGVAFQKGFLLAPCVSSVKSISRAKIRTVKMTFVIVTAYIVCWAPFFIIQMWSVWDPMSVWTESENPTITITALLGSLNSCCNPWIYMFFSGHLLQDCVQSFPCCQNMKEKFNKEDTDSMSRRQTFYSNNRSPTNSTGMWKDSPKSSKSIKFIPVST
Protocol: as §1, §2
Vasopressin V1a Receptor Cell Lines:
On the day before the assay, the cells are plated out in culture medium (DMEM/F12, 2% FCS, 2 mM glutamine, 10 mM HEPES, 5 μg/ml coelenterazine) in 384-well microtiter plates and kept in a cell incubator (96% humidity, 5% v/v CO2, 37C). On the day of the assay, test compounds in various concentrations are placed for 10 minutes in the wells of the microtiter plate before the agonist [Arg^8]-vasopressin at EC50 concentration is added. The resulting light signal is measured immediately in a luminometer.
as §3

[1] = PBS buffer pH 7.4, pH 7.4, aqueous buffer, pH = 7.4 PBS buffer
[2] = Tris buffer pH 8.5, pH 8.5, aqueous buffer, pH = 8.5 Tris buffer
[3] = citrate buffer pH 4, pH 4, aqueous buffer, pH = 4 citrate buffer

With `NC(=O)c1nc(Cn2nc(-c3ccc(Cl)cc3)n(C[C@H](OP(=O)([O-])O)C(F)(F)F)c2=O)nn1-c1ncccc1C(F)(F)F.[Na+]` [Example 4, Sodium (2S)-3-[1-({5-carbamoyl-1-[3-(trifluoromethyl)pyridin-2-yl]-1H-1,2,4-triazol-3-yl}-methyl)-3-(4-chlorophenyl)-5-oxo-1,5-dihydro-4H-1,2,4-triazol-4-yl]-1,1,1-trifluoropropan-2-yl Hydrogen Phosphate] the IC50 (human V2 receptor) was 150 nM, the solubility at 24 h (Solubility; [1]) was > 500 µg/mL and the solubility at 24 h (Solubility; [2]) was > 500 µg/mL. The solubility at 24 h (Solubility; [3]) was > 500 µg/mL, the IC50 (human V1a receptor) was 11.1 nM and the “ratio IC50 hV2/hV1a” value (human V1a receptor; Phosphate) was 13.5.
With `NC(=O)c1nc(Cn2nc(-c3ccc(Cl)cc3)n(C[C@H](OP(=O)([O-])O)C(F)(F)F)c2=O)nn1-c1ncccc1C(F)(F)F.[Li+]` [Example 6, Lithium (2S)-3-[1-({5-carbamoyl-1-[3-(trifluoromethyl)pyridin-2-yl]-1H-1,2,4-triazol-3-yl}-methyl)-3-(4-chlorophenyl)-5-oxo-1,5-dihydro-4H-1,2,4-triazol-4-yl]-1,1,1-trifluoropropan-2-yl Hydrogen Phosphate] the IC50 (human V2 receptor) was 220 nM, the solubility at 24 h (Solubility; [1]) was 464 µg/mL and the solubility at 24 h (Solubility; [2]) was 464 µg/mL. For the same molecule, the solubility at 24 h (Solubility; [3]) was > 500 µg/mL, the IC50 (human V1a receptor) was 15.5 nM and the “ratio IC50 hV2/hV1a” value (human V1a receptor; Phosphate) was 14.2.
With `NC(=O)c1nc(Cn2nc(-c3ccc(Cl)cc3)n(C[C@H](OP(=O)([O-])O)C(F)(F)F)c2=O)nn1-c1ncccc1C(F)(F)F.[Li+]` [Example 7, Lithium (2S)-3-[1-({5-carbamoyl-1-[3-(trifluoromethyl)pyridin-2-yl]-1H-1,2,4-triazol-3-yl}-methyl)-3-(4-chlorophenyl)-5-oxo-1,5-dihydro-4H-1,2,4-triazol-4-yl]-1,1,1-trifluoropropan-2-yl Hydrogen Phosphate] the IC50 (human V2 receptor) was 160 nM, the Solubility (Solubility; pH = 4 citrate buffer) was >500 µg/mL and the Solubility (Solubility; pH = 7.4 PBS buffer, Phosphate) was >500 µg/mL. The Solubility (Solubility; pH = 8.5 Tris buffer, Phosphate) was >500 µg/mL, the IC50 (human V1a receptor) was 8.85 nM and the “ratio IC50 hV2/hV1a” value (human V1a receptor; Phosphate) was 18.1.
With `NC(=O)c1nc(Cn2nc(-c3ccc(Cl)cc3)n(C[C@H](OP(=O)([O-])[O-])C(F)(F)F)c2=O)nn1-c1ncccc1C(F)(F)F.[Mg+2]` [Example 9, Magnesium (2S)-3-[1-({5-carbamoyl-1-[3-(trifluoromethyl)pyridin-2-yl]-1H-1,2,4-triazol-3-yl}-methyl)-3-(4-chlorophenyl)-5-oxo-1,5-dihydro-4H-1,2,4-triazol-4-yl]-1,1,1-trifluoropropan-2-yl Phosphate] the IC50 (human V2 receptor) was 225 nM, the solubility at 24 h (Solubility; [1]) was > 500 µg/mL and the solubility at 24 h (Solubility; [2]) was 447 µg/mL. The solubility at 24 h (Solubility; [3]) was > 500 µg/mL, the IC50 (human V1a receptor) was 14 nM and the “ratio IC50 hV2/hV1a” value (human V1a receptor) was 16.1.
With `NC(=O)c1nc(Cn2nc(-c3ccc(Cl)cc3)n(C[C@H](OP(=O)([O-])O)C(F)(F)F)c2=O)nn1-c1ncccc1Cl.[Na+]` [Example 20, Sodium (2S)-3-[1-{[5-carbamoyl-1-(3-chloropyridin-2-yl)-1H-1,2,4-triazol-3-yl]methyl}-3-(4-chlorophenyl)-5-oxo-1,5-dihydro-4H-1,2,4-triazol-4-yl]-1,1,1-trifluoropropan-2-yl Hydrogen Phosphate] the IC50 (human V2 receptor) was 85.5 nM, the solubility at 24 h (Solubility; [1]) was > 500 µg/mL and the solubility at 24 h (Solubility; [2]) was > 500 µg/mL. The solubility at 24 h (Solubility; [3]) was > 500 µg/mL, the IC50 (human V1a receptor) was 39.5 nM and the “ratio IC50 hV2/hV1a” value (human V1a receptor; Phosphate) was 2.2.
In the case of `NC(=O)c1nc(Cn2nc(-c3ccc(Cl)cc3)n(C[C@H](OP(=O)([O-])[O-])C(F)(F)F)c2=O)nn1-c1ncccc1Cl.[Mg+2]` [Example 22, Magnesium (2S)-3-[1-{[5-carbamoyl-1-(3-chloropyridin-2-yl)-1H-1,2,4-triazol-3-yl]methyl}-3-(4-chlorophenyl)-5-oxo-1,5-dihydro-4H-1,2,4-triazol-4-yl]-1,1,1-trifluoropropan-2-yl Phosphate], the IC50 (human V2 receptor) is reported as 90 nM, the solubility at 24 h (Solubility; [1]) is reported as > 500 µg/mL and the solubility at 24 h (Solubility; [2]) is reported as > 500 µg/mL. The solubility at 24 h (Solubility; [3]) was > 500 µg/mL, the IC50 (human V1a receptor) was 45 nM and the “ratio IC50 hV2/hV1a” value (human V1a receptor) was 2.0.
